{
  "source": "patent US20200262991A1",
  "about": "“Method for Tuning Topology of Polymer Particles” (UNIVERSITY OF SOUTH CAROLINA, priority 2019, published 2020)",
  "test_system": "3T3-L1 adipocytes",
  "assay": "Oil Red O lipid content assay in differentiated 3T3-L1 adipocytes",
  "assay_type": "cell-based, mouse",
  "details": "60 μM free resveratrol dissolved in ethanol, 48 hours",
  "procedure": "3T3-L1 fibroblasts (ATCC), were differentiated into adipocytes following ATCC's protocol, with slight modifications. Briefly, 3T3-L1 cells were seeded in 6 well plates at 80,000 cells/well and cultured in DMEM supplemented with 10% SuperCalf Serum and 1% Pen/Strep. 48 hours after confluence was reached, media was exchanged with “differentiation media” consisting of DMEM supplemented with 10% FBS, 10 μg/mL bovine insulin, 0.25 μM dexamethasone, and 0.5 mM IBMX. 48 hours after differentiation media was added, media was exchanged for DMEM supplemented with 10% FBS and 10 μg/mL bovine insulin. After another 48 hours, media was exchanged for DMEM supplemented with 10% FBS. Cells were then cultured until treatment with particles, which occurred 9 days after exposure to the differentiation media. […] Absorbance of extracted Oil Red O was measured at 500 nm using a spectrophotometer. Bioactivity of the resveratrol following the fabrication process was determined. Specifically, the ability of the resveratrol particles to induce lipolysis in differentiated 3T3-L1 adipocytes was determined by measuring lipid content with an Oil Red O assay. […] Lipid content was visualized with Oil Red O, a lipophilic dye, (FIG. 3 at A-F) and lipid content was quantified by extracting the dye (FIG. 3 at G) and measuring the solution's absorbance (FIG. 3 at H).",
  "data": [
    {"smiles": "Oc1ccc(/C=C/c2cc(O)cc(O)c2)cc1", "note": "[resveratrol, 3,5,4′-trihydroxy-trans-stilbene]", "values": [
      {"measurement": "Oil Red O staining (intracellular lipid content)", "result": "decreased Oil Red O staining"}
    ]}
  ]
}
